In ChEMBL document CHEMBL5360622, “Leucettinibs, a Class of DYRK/CLK Kinase Inhibitors Inspired by the Marine Sponge Natural Product Leucettamine B” (J Med Chem, 2023) one finds IC50 and ΔTm data, which are given here for one compound.

Assay [1] deals with T1, Dual specificity tyrosine-phosphorylation-regulated kinase 4 (Homo sapiens, UniProt Q9NR20).
T1 sequence (Q9NR20 whole entry): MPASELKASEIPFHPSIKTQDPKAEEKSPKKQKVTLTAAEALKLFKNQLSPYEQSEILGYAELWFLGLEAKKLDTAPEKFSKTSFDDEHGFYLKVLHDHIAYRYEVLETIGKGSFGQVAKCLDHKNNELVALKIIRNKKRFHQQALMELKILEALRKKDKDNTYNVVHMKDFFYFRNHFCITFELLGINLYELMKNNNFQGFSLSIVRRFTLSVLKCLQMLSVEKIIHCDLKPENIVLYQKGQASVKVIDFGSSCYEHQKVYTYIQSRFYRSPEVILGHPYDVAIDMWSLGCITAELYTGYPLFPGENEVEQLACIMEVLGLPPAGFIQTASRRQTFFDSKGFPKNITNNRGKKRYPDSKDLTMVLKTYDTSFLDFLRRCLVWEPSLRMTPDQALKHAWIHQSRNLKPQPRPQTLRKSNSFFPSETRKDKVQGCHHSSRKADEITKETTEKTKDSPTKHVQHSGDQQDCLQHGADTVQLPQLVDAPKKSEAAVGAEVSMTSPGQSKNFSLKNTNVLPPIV

For assay [2], the target named is T2, Dual specificity tyrosine-phosphorylation-regulated kinase 3 (Homo sapiens, UniProt O43781).
T2 sequence (O43781 whole entry): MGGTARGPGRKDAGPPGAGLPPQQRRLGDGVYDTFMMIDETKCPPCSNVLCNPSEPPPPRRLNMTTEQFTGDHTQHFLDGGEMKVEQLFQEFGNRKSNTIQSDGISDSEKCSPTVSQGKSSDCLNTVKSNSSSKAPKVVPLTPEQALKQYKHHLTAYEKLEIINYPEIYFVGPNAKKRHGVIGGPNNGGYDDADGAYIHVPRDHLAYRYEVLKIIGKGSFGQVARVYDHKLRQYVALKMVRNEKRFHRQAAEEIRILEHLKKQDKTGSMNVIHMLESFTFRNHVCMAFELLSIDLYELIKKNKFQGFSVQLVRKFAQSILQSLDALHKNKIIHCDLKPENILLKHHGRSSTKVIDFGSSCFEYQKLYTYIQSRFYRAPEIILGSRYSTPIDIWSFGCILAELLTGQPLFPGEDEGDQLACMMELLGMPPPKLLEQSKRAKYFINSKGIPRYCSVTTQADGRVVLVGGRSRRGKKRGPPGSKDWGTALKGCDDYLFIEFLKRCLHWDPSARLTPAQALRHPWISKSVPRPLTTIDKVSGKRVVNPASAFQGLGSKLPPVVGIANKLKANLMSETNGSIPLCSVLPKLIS

For assay [3], the target named is T3, Casein kinase I isoform epsilon (Homo sapiens, UniProt P49674). Conditions: dose 10.0 µM.
In assay [4] the target is T4, Mitogen-activated protein kinase 15 (Homo sapiens) (UniProt Q8TD08).
T4 sequence (whole entry): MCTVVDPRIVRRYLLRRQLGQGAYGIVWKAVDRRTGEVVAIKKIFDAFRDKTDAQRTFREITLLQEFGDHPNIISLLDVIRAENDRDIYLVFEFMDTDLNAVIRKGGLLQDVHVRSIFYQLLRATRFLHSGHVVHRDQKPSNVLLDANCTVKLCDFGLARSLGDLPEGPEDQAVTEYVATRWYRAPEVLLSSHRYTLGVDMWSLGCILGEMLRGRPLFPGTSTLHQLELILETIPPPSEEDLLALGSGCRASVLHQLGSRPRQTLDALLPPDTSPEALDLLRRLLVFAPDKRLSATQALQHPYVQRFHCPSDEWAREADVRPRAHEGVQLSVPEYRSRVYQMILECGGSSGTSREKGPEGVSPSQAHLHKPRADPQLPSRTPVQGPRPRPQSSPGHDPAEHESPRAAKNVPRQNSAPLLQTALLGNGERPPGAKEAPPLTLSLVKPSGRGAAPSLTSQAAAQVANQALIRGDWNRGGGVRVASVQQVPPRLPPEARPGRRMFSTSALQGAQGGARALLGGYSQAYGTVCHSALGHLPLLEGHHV
Conditions: dose 10.0 µM.

Assay [5] concerns the target Cyclin-dependent kinase 5/CDK5 activator 1 (Homo sapiens, UniProt Q00535). The format is cell-based, Sf9.
The target in assay [6] is Casein kinase I isoform delta (Homo sapiens) (UniProt P48730). Conditions: dose 10.0 µM.
In assay [7] the target is Dual specificity tyrosine-phosphorylation-regulated kinase 1A (Homo sapiens, UniProt Q13627).
Assay [8] addresses Dual specificity protein kinase CLK3 (Homo sapiens, UniProt P49761). In kind it is cell-based, Sf9.
Assay [9] deals with Serine/threonine-protein kinase pim-3 (Homo sapiens) (UniProt Q86V86). To be noted: dose 10.0 µM.
The target of assay [10] is T5, Glycogen synthase kinase-3 beta (Homo sapiens, UniProt P49841). Conditions: dose 10.0 µM.
Target sequence in this assay (P49841 whole entry, looked up): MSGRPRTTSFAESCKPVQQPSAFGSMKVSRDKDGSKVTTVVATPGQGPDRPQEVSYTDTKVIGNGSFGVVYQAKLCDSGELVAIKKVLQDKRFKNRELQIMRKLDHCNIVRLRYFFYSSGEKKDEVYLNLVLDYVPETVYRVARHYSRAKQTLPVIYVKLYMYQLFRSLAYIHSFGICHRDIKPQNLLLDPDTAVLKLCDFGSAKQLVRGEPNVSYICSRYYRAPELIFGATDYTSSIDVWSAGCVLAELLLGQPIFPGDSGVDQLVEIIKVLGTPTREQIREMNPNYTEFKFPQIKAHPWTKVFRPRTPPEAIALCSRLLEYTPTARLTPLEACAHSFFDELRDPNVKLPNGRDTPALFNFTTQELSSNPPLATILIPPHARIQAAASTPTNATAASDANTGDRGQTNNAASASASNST
Assay [11] has as its target Homeodomain-interacting protein kinase 2 (Homo sapiens) (UniProt Q9H2X6). Conditions: dose 10.0 µM.
Assay [12] has as its target Aurora kinase A (Homo sapiens) (UniProt O14965). To be noted: dose 10.0 µM.
Assay [13] addresses Dual specificity protein kinase CLK4 (Homo sapiens, UniProt Q9HAZ1).
The target of assay [14] is Casein kinase II subunit alpha (Homo sapiens) (UniProt P68400). Conditions: dose 10.0 µM.
Assay [15] addresses Dual specificity protein kinase CLK1 (Homo sapiens, UniProt P49759). To be noted: dose 10.0 µM.
Assay [16] deals with Dual specificity tyrosine-phosphorylation-regulated kinase 2 (Homo sapiens) (UniProt Q92630). Conditions: dose 10.0 µM.
Assay [17] addresses T3, Casein kinase I isoform epsilon.
Assay [18] has as its target Serine/threonine-protein kinase haspin (Homo sapiens) (UniProt Q8TF76). Conditions: dose 10.0 µM.
Assay [19] has as its target Calcium/calmodulin-dependent protein kinase kinase 2 (Homo sapiens) (UniProt Q96RR4). To be noted: dose 10.0 µM.
Assay [20] has as its target Myotonin-protein kinase (Homo sapiens) (UniProt Q09013). Conditions: dose 10.0 µM.
Assay [21] has as its target T5, Glycogen synthase kinase-3 beta. In kind it is cell-based, Sf9.
Target sequence in this assay (P49841 whole entry): as the sequence (P49841 whole entry, looked up) above

Structures are written as SMILES. Some results are limits rather than exact numbers.

Calcium/calmodulin-dependent protein kinase kinase 2 (Homo sapiens), sequence (Q96RR4 2-588 limits assumed): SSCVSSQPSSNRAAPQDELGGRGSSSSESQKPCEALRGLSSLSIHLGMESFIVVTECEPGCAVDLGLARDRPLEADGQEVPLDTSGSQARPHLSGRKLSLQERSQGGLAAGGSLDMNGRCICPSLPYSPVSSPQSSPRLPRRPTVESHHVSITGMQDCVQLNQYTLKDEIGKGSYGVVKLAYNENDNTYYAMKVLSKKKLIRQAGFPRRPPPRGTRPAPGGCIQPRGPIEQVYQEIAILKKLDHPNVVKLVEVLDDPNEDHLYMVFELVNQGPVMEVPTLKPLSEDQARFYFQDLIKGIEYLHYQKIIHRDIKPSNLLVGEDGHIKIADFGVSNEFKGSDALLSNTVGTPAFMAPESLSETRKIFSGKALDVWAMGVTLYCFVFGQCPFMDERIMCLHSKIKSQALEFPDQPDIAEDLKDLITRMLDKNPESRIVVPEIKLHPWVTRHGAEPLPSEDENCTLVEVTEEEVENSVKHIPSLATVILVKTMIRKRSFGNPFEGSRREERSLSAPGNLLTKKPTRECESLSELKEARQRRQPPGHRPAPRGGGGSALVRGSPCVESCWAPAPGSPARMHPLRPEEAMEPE
Dual specificity tyrosine-phosphorylation-regulated kinase 2 (Homo sapiens), sequence (Q92630 whole entry, canonical isoform): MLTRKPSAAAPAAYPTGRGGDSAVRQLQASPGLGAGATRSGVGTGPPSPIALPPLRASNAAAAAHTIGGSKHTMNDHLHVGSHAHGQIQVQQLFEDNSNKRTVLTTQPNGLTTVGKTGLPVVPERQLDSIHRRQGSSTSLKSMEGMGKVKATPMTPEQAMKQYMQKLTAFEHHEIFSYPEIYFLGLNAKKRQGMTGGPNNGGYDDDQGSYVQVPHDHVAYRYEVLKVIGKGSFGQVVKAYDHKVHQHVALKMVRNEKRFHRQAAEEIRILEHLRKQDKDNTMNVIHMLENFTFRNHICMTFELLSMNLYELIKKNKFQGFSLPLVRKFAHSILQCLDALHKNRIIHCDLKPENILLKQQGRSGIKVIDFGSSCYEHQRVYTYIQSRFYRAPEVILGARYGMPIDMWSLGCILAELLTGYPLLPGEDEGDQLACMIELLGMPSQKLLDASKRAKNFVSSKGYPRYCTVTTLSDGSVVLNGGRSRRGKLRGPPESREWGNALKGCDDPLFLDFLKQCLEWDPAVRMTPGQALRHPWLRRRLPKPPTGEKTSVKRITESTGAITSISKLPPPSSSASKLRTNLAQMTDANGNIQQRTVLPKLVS
Casein kinase II subunit alpha (Homo sapiens), sequence (P68400 whole entry, looked up): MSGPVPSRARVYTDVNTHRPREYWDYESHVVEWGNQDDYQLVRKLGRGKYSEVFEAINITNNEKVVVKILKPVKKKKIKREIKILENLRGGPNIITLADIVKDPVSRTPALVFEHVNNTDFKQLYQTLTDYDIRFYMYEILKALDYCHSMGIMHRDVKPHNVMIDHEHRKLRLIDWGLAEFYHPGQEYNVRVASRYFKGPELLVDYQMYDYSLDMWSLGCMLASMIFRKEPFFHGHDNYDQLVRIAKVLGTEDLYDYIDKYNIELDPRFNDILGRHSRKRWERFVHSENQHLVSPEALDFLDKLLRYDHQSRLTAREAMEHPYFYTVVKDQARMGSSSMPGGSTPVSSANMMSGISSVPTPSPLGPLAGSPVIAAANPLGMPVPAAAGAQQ
Aurora kinase A (Homo sapiens), sequence (O14965 whole entry): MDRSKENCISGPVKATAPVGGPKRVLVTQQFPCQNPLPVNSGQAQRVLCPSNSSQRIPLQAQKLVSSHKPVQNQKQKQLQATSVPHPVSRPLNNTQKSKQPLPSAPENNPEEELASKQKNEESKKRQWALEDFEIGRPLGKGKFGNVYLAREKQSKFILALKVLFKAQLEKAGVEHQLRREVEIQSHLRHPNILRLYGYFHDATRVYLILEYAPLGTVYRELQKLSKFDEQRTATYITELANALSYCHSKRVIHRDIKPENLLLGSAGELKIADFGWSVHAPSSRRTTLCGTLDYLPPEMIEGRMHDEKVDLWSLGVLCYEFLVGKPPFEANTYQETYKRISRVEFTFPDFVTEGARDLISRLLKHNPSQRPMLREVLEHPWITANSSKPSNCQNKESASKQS
Dual specificity protein kinase CLK3, sequence (P49761 whole entry): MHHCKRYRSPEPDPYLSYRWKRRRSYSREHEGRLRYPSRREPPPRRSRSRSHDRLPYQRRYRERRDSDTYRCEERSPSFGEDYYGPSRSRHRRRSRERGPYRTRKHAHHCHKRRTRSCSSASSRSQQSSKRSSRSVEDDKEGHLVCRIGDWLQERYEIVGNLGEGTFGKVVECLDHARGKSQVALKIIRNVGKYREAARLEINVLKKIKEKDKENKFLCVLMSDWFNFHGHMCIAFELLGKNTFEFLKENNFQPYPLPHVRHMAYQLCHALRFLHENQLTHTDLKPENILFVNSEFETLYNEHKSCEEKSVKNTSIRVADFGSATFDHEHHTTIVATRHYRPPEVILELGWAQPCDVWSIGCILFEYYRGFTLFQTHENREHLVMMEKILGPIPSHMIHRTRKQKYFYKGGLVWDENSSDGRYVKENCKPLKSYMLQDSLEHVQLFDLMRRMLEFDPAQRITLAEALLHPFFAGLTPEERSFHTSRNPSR
Cyclin-dependent kinase 5/CDK5 activator 1, sequence (Q00535 whole entry, canonical isoform): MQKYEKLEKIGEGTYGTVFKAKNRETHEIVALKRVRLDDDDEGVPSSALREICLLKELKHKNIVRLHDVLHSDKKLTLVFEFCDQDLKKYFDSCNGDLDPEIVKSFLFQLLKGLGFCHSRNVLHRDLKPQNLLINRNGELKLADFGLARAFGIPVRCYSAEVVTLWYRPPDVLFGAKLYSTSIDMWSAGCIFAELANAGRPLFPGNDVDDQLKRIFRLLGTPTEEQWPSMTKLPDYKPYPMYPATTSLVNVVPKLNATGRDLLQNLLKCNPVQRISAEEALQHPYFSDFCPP
Cyclin-dependent kinase 5/CDK5 activator 1, sequence (Q15078 whole entry, further chain, canonical isoform): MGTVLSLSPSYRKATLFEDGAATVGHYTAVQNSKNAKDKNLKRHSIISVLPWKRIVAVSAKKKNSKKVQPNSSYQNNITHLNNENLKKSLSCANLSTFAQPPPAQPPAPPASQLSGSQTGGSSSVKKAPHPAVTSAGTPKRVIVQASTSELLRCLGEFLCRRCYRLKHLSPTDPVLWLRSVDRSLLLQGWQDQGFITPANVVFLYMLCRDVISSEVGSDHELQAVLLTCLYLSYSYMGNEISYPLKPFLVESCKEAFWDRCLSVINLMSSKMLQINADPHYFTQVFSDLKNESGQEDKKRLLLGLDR
Homeodomain-interacting protein kinase 2 (Homo sapiens), sequence (Q9H2X6 whole entry, looked up): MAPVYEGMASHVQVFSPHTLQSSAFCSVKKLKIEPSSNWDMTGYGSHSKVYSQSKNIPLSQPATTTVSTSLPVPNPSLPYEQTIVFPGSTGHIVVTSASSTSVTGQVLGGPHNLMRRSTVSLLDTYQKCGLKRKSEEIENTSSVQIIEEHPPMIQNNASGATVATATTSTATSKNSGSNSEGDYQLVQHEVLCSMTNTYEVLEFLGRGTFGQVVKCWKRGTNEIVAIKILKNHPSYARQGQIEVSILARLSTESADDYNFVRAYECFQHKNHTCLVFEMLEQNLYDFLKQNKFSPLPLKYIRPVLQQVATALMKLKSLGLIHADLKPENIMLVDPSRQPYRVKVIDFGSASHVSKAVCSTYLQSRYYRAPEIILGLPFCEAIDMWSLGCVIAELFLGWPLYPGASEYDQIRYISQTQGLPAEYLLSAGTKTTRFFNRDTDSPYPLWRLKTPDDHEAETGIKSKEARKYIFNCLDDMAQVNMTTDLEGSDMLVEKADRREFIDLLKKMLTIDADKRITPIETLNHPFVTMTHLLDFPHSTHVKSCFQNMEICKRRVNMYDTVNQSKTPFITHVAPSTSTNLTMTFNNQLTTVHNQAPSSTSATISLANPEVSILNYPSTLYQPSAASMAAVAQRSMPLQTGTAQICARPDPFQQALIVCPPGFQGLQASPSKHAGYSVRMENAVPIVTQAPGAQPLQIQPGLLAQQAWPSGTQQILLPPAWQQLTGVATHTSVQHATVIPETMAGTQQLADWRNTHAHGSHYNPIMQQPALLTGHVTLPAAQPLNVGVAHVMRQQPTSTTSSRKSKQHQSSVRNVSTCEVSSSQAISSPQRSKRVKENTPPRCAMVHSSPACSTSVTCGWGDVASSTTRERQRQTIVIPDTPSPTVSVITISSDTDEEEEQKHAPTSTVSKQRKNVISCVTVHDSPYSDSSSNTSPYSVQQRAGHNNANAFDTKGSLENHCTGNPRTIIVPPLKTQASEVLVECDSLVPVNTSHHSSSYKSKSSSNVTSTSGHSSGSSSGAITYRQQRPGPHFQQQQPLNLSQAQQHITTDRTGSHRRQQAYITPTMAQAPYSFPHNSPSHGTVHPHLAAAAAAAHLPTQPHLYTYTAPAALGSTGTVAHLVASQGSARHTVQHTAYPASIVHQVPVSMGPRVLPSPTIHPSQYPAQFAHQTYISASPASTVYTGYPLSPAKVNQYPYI

Regarding `O=C1NC(NC23CC4CC(CC(C4)C2)C3)=N/C1=C\c1ccc2scnc2c1`, the IC50 – broadly, the midpoint of a concentration-inhibition curve – in [1] was more than 10 µM; in [2], more than 10 µM; in [5] it was more than 10 µM; in assay [7], 3.4 µM; in assay [8] it was more than 10 µM; in assay [13], 3.5 µM. Besides, the IC50 in assay [17] and in [21] was more than 10 µM throughout. Further, the shift in melting temperature (ΔTm) (as a rule, the change in melting temperature against a reference sample) was -2.5 °C in [3]; -0.2 °C in assay [4]; 1.4 °C in [6]; 1 °C in assay [9]; 0.9 °C in [10]; -0.4 °C in assay [11]. Also, the shift in melting temperature (ΔTm) was -0.4 °C in [12]; 0.3 °C in assay [14]; 2 °C in assay [15]; 0 °C in [16]; -0.1 °C in assay [18]; -0.5 °C in [19]. Also, the shift in melting temperature (ΔTm) in assay [20] turned out to be 0.1 °C.
